Results from PMC4508061, “Selectivity Profiling and Biological Activity of Novel β-Carbolines as Potent and Selective DYRK1 Kinase Inhibitors” (PLoS ONE, 2015).
Read-outs that look alike come from different tables or passages of the source.

Tests used:
MAO-A = molecular target: T1, MAO-A (Homo sapiens, UniProt P21397); assay: MAO-GLO assay; assay type: biochemical; settings: for IC50: read-out: Inhibition of MAO-A IC50
T1 sequence (P21397 1-527): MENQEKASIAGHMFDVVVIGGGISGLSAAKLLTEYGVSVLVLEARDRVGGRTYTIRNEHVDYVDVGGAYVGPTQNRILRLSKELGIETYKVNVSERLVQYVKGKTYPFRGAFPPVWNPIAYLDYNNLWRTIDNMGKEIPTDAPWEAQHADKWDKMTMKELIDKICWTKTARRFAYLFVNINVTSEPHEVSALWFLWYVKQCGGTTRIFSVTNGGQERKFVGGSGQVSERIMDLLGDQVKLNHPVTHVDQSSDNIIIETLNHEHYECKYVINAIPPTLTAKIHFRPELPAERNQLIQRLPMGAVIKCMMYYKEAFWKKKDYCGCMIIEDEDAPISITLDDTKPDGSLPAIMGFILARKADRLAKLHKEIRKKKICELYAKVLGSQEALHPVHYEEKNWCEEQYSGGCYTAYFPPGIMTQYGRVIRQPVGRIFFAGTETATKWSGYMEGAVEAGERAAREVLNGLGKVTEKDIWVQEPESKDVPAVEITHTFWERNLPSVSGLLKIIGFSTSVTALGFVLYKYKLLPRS
Protocol: (§1) 2 were calculated. Kinase activity of DYRK1A was determined by radiometric assays using the peptide DYRKtide as a substrate. MAO-A activity was measured with the help of the MAO-GLO assay kit (Promega). IC50 values were calculated by curve fitting with the help of […]
(§2) the […] PRISM 5.0 program after automatic outlier elimination. The graphs present

Cell viability XTT assay [1] = assay type: cell-based; settings: human, SH-SY5Y cells, read-out: Viability of treated cells relative to untreated control
Cell viability XTT assay [2] = assay type: cell-based; settings: rat, PC12 cells, read-out: Viability of treated cells relative to untreated control; for viability at 3 days, 1 µM: PC12, 1 μM; for viability at 3 days, 3 µM: PC12, 3 μM; for viability at 3 days, 10 µM: PC12, 10 μM
HIPK2 = HIPK2 (Homo sapiens, UniProt Q9H2X6); assay: Kinase-GLO luminescent kinase assay; assay type: biochemical; design: made in house; host or cells: E. coli; settings: 10 μM compound; means of at least 3 measurements
Protocol: (§3) Bacterial expression plasmids for GST-DYRK1A-ΔC and GST-DYRK2 have been described earlier. […] Expression in logarithmically growing E. coli culture was performed for 3 h at 37°C (GST-DYRK1A-ΔC and GST-DYRK2), 3 h at 26°C (GST-HIPK2cat), over night at 28°C (GST-CLK1cat) or over night at room temperature (GST-DYRK1Bcat).
(§4) Compounds were screened for inhibitory effects against GST-DYRK1A-ΔC, GST-DYRK1Bcat, GST-DYRK2, GST-CLK1cat or GST-HIPK2cat using the Kinase-GLO Luminescent Kinase Assay from Promega. Assays were performed in a total volume of 10 μL in kinase-buffer (25 mM Hepes pH 7.4, 0.5 mM DTT, 5 mM MgCl2, 5 μM ATP) with appropriate peptide substrates (20 μM DYRKtide for the DYRKs and 100 μM DYRKtide for HIPK2, […]; or 100 μM RS domain-derived peptide for CLK1, […]). Assays were started with this amount of a kinase preparation that consumed approximately 90% of the ATP in the assay (linear range of the kinase titration curve). The reactions were run at room temperature for 30 min before 10 μL Kinase-GLO reagent was added. After incubation at room temperature for additional 10 min, luminescence was recorded for 1 s.

CLK1 [3] = molecular target: T2, CLK1 (Homo sapiens, UniProt P49759); assay: Kinase-GLO luminescent kinase assay; assay type: biochemical; design: made in house; host or cells: E. coli; settings: 1 μM compound; means of at least 3 measurements
Protocol: as §3, §4

DYRK1B = DYRK1B (Homo sapiens, UniProt Q9Y463); assay: Kinase-GLO luminescent kinase assay; assay type: biochemical; design: made in house; host or cells: E. coli; settings: 1 μM compound; means of at least 3 measurements
Protocol: as §3, §4

Cell viability XTT assay [4] = assay type: cell-based; settings: human, HeLa cells, read-out: Viability of treated cells relative to untreated control
DYRK1A [5] = molecular target: T3, DYRK1A (Rattus norvegicus, UniProt Q63470); assay: Radioactive kinase assay (DYRKtide, 33P-ATP); assay type: biochemical; settings: 100 μM ATP, n = 3–5 concentration response curves, read-out: Inhibition of DYRK1A IC50
T3 construct: Bacterial expression plasmids for GST-DYRK1A-ΔC and GST-DYRK2 have been described earlier; made in house; host or cells: E. coli
Protocol: Each sample was assayed in triplicate. […]
estimate solubility and permeability in drug discovery and development settings. Adv. Drug Delivery Rev. 23, 4-25. […]
that influence the oral bioavailability of drug candidates. […]
c estimated using the Molinspiration logP engine. […]
log [inhibitor,M] log [inhibitor, M]
as §1, §2

DYRK2 [6] = molecular target: T4, DYRK2 (Homo sapiens, UniProt Q92630); assay: Kinase-GLO luminescent kinase assay; assay type: biochemical; settings: 1 μM compound; means of at least 3 measurements
T4 construct: purchased ProQinase (Freiburg, Germany)
T4 sequence (Q92630 1-601): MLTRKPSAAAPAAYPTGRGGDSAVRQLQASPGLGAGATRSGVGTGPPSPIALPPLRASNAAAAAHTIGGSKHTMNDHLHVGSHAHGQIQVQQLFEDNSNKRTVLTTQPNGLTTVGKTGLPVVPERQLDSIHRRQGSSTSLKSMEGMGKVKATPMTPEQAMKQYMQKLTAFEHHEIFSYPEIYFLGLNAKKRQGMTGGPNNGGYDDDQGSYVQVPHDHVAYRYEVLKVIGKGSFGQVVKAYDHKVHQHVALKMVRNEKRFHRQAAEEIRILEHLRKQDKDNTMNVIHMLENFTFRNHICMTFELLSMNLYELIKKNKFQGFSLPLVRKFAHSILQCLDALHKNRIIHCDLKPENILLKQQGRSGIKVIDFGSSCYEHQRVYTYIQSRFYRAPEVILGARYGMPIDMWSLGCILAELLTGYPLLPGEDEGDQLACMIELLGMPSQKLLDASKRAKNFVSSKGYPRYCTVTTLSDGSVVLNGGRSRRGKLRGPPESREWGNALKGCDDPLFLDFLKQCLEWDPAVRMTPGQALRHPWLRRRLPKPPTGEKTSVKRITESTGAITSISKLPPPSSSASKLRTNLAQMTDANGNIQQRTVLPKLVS
Protocol: as §3, §4

DYRK1A [7] = molecular target: T5, DYRK1A (Homo sapiens, UniProt Q13627); assay: Kinase-GLO luminescent kinase assay; assay type: biochemical; settings: 1 μM compound; means of at least 3 measurements
T5 construct: purchased ProQinase (Freiburg, Germany)
Protocol: as §3, §4

CLK2 = molecular target: T6, CLK2 (Homo sapiens, UniProt P49760); settings: 10 μM; cited from earlier work
T6 construct: purchased ProQinase (Freiburg, Germany)

CLK1 [8] = molecular target: T2, CLK1; design: purchased ProQinase (Freiburg, Germany); settings: 10 μM; cited from earlier work
HIPK1 = HIPK1 (Homo sapiens, UniProt Q86Z02); design: purchased ProQinase (Freiburg, Germany); settings: 10 μM; cited from earlier work
DYRK1A [9] = settings: given because %-activity values are not given in the reference; read-out: IC50; cited from earlier work
PIM1 = PIM1 (Homo sapiens, UniProt P11309); design: purchased ProQinase (Freiburg, Germany); settings: 10 μM; cited from earlier work
DYRK3 = molecular target: T7, DYRK3 (Homo sapiens, UniProt O43781); settings: 10 μM; cited from earlier work
T7 construct: purchased ProQinase (Freiburg, Germany)
T7 sequence (O43781 1-588): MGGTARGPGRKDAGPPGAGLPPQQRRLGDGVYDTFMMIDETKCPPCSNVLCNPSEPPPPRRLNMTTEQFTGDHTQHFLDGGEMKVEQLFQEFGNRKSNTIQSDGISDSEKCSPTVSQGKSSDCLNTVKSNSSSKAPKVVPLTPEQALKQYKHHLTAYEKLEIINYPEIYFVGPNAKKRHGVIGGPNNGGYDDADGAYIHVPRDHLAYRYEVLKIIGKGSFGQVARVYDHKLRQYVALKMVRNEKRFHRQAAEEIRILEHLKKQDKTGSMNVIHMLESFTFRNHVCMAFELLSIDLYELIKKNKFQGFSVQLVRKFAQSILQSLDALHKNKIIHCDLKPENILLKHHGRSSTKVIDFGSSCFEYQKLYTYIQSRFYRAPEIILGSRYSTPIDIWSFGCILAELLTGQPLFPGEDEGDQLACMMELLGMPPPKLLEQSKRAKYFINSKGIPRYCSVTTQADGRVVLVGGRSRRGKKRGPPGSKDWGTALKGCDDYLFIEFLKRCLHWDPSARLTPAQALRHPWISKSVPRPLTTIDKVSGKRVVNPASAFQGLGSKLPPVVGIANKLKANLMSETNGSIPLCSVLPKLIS

DYRK4 = molecular target: T8, DYRK4 (Homo sapiens, UniProt Q9NR20); settings: 10 μM; cited from earlier work
T8 construct: purchased ProQinase (Freiburg, Germany)

DYRK2 [10] = molecular target: T4, DYRK2; settings: 10 μM; cited from earlier work
CLK3 = molecular target: T9, CLK3 (Homo sapiens, UniProt P49761); settings: 10 μM; cited from earlier work
T9 construct: purchased ProQinase (Freiburg, Germany)

[11] = n = 3–5 concentration response curves

Sequence of HIPK2 (Q9H2X6 180-533): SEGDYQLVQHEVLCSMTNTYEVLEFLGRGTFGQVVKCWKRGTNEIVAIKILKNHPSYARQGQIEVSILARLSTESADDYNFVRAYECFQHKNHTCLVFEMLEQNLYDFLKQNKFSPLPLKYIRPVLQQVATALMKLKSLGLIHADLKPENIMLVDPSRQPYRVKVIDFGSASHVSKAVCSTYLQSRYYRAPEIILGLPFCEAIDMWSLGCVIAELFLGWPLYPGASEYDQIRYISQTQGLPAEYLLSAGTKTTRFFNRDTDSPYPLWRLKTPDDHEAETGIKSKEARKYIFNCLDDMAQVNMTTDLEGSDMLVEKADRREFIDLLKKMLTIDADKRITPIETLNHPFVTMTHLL
T6 sequence (P49760 whole entry): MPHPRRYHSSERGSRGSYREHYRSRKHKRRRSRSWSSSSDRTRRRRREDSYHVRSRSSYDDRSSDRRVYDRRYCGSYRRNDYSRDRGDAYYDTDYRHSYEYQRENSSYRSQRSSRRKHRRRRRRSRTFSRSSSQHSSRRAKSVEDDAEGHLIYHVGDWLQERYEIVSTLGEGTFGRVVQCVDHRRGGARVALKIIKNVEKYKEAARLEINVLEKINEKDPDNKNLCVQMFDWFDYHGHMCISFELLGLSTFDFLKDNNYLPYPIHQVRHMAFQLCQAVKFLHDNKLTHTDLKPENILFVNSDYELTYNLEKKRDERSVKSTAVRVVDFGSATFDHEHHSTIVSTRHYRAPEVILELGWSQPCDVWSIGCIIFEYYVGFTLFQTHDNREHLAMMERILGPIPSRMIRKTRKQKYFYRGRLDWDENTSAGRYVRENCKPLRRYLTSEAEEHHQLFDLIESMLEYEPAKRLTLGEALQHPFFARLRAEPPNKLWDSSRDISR
Sequence of HIPK1 (Q86Z02 whole entry): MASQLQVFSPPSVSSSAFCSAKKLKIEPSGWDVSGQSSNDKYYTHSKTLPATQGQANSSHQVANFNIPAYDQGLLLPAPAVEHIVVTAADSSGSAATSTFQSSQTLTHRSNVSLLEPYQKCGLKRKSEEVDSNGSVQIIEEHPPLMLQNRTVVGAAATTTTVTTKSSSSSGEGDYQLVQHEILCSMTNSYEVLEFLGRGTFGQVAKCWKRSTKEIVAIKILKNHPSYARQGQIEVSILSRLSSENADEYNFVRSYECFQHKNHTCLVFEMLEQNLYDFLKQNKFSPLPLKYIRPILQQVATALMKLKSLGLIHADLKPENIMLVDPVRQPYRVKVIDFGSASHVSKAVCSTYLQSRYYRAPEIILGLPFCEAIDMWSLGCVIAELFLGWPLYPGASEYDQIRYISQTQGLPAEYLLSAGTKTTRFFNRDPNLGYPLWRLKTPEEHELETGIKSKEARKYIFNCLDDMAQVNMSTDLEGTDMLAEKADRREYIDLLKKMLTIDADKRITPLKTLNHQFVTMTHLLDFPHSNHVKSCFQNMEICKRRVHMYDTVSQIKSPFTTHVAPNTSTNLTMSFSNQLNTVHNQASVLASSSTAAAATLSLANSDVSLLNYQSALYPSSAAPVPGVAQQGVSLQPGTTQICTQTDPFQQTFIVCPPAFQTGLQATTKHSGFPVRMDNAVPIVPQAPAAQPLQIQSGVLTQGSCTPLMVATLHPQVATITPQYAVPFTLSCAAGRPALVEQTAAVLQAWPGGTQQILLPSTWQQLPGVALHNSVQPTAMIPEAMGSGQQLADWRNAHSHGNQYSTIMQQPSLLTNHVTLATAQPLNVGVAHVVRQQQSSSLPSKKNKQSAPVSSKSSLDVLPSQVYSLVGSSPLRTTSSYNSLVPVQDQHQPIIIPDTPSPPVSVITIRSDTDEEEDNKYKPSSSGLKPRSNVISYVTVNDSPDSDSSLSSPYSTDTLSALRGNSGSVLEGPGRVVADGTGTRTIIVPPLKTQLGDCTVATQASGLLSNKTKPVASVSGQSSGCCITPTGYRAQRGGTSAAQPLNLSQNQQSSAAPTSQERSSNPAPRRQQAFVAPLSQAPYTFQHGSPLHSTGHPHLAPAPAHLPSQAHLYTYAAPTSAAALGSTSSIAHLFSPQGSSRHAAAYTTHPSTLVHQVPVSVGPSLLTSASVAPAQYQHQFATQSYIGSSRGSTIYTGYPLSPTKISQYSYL
T8 sequence (Q9NR20 whole entry): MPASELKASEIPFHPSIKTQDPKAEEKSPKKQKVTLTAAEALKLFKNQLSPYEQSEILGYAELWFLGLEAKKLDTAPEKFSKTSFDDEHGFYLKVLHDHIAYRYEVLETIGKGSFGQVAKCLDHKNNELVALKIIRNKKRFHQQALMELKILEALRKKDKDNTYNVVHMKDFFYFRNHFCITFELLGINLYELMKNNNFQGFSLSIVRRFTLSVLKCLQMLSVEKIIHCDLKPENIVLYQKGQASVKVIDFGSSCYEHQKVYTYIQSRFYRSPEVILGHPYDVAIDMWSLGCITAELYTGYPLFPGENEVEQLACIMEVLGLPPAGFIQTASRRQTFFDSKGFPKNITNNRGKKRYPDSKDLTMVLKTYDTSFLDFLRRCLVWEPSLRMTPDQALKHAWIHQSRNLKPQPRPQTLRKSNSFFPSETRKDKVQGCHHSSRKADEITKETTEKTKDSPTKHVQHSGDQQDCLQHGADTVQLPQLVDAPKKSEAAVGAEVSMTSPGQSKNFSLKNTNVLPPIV
Sequence of PIM1 (P11309 whole entry): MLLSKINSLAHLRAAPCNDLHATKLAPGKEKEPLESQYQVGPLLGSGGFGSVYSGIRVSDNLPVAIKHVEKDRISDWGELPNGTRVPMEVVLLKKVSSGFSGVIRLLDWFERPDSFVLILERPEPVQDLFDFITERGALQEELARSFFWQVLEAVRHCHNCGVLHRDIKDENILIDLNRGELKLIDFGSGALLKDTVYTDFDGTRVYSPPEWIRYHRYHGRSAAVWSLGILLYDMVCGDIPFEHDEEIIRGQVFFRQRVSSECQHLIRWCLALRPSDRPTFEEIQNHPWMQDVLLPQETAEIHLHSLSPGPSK
T9 sequence (P49761 whole entry): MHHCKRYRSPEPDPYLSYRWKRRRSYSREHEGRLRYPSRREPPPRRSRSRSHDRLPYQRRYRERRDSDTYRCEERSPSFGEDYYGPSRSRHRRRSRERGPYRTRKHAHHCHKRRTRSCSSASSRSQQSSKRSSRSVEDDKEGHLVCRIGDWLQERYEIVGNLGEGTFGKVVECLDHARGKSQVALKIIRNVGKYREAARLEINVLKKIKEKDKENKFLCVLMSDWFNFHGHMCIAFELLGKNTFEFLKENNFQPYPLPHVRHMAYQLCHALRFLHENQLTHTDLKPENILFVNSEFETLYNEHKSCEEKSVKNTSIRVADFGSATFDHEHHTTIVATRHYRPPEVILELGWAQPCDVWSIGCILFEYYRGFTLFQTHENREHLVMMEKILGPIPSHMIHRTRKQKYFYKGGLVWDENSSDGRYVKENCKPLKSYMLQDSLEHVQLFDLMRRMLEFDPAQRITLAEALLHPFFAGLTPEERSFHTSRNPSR

SMILES | IC50 (MAO-A; [11]) [µM] | viability at 3 days, 1 µM (Cell viability XTT assay [1]) [%] | viability at 3 days, 3 µM (Cell viability XTT assay [1]) [%] | viability at 3 days, 10 µM (Cell viability XTT assay [1]) [%] | viability at 3 days, 1 µM (Cell viability XTT assay [2]) [%] | viability at 3 days, 3 µM (Cell viability XTT assay [2]) [%] | viability at 3 days, 10 µM (Cell viability XTT assay [2]) [%] | Residual activity (% of control) HIPK2 (HIPK2) | Residual activity (% of control) CLK1 (CLK1 [3]) | Residual activity (% of control) DYRK1B (DYRK1B) | viability at 3 days, 1 µM (Cell viability XTT assay [4]) [%] | viability at 3 days, 3 µM (Cell viability XTT assay [4]) [%] | viability at 3 days, 10 µM (Cell viability XTT assay [4]) [%] | IC50 (DYRK1A [5]) [µM] | Residual activity (% of control) DYRK2 (DYRK2 [6]) | Residual activity (% of control) DYRK1A (DYRK1A [7]) | also measured
COc1ccc2c3ccnc(C)c3n(CC#N)c2c1 [AnnH31] | 3.24 | 81 | 88 | 38 | 89 | 88 | 70 | 70 % of control | 11 % of control | 7 % of control | 93 | 80 | 55 | 0.081 | 59 % of control | 8 % of control | inhibition at 1 µM (MAO-A; 1 μM, primary screen): 25%; selectivity for DYRK1A over MAO-A (MAO-A; ratio of IC50 values): 40 fold; IC50 (MAO-A): 3.2 µM
COc1ccc2c3ccnc(C)c3n(C(C)C#N)c2c1 (centres unmarked) [AnnH43] | 5.39 | 61 | 68 | 45 | 88 | 88 | 90 | 84 % of control | 10 % of control | 14 % of control | 91 | 80 | 66 | 0.202 | 56 % of control | 5 % of control | –
CCN1/C(=C/C(C)=O)Sc2ccc(O)cc21 [INDY] | – | – | – | – | – | – | – | – | – | – | – | – | – | – | – | – | Residual activity (% of control) (CLK2): 12 % of control; Residual activity (% of control) (CLK1 [8]): 1 % of control; Residual activity (% of control) (HIPK1): 64 % of control; IC50 (DYRK1A [9]): […]; Residual activity (% of control) (PIM1): 2 % of control; Residual activity (% of control) (DYRK3): 0 % of control; Residual activity (% of control) (DYRK4): 13 % of control; Residual activity (% of control) (DYRK2 [10]): 3 % of control; Residual activity (% of control) (CLK3): 30 % of control
